Results from patent US11814376B2, “Hepatitis b core protein modulators” (Assembly Biosciences, Inc., priority 2015, dated 2023).

Key:
[1] = tested on: HBV viral load in AD38 cells; assay: Viral load production in AD38 cells, quantitative PCR of the core sequence in supernatant; type: cell-based; conditions: 10 μM compound, 6 days at 37° C., supernatant qPCR, relative to DMSO control; for activity at 10 µM: Hepatitis B virus, 144 h, read-out: AD38 Viral Load (%) (VL with cmpd/VL in DMSO control) at 10 μM
AD38 cells = assay: Viability of AD38 cells (Promega CellTiter-Glo); type: cell-based; conditions: 10 μM compound, 6 days, CellTiter-Glo luminescence normalized to DMSO control (100%)
Method in brief: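 After 6 days of compound exposure at 37° C (compound added as 10× solution in 10% DMSO; 50,000 cells/well, collagen-coated), medium was replaced with tetracycline-free DMEM/F12, 2% FBS, 1% DMSO. CellTiter-Glo luminescence was then recorded and normalized to DMSO-treated wells as 100% viability.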

SMILES: O=C(NCc1cnc(-c2ccc(-c3nccs3)cc2)s1)c1ccc2c(c1)NC(=O)c1ccccc1S2(=O)=O [compound 1954]
- activity at 10 µM [1]: 0.5%
- AD38 Viability Normalized Result (cmpd/DMSO %) at 10 μM (AD38 cells): 106%

SMILES: CN(C)CCCCc1cnn(-c2ncc(CNC(=O)c3ccc4c(c3)NC(=O)c3ccccc3S4(=O)=O)s2)c1 [compound 11099]
- activity at 10 µM [1]: 3.9%
- AD38 Viability Normalized Result (cmpd/DMSO %) at 10 μM (AD38 cells): 90%

SMILES: COc1ccc(-c2ncc(CNC(=O)c3ccc4c(c3)NC(=O)c3ccccc3O4)s2)cn1 [compound 1705, N-((2-(6-methoxypyridin-3-yl)thiazol-5-yl)methyl)-11-oxo-10, 11-dihydrodibenzo [b, f] [1, 4] oxazepine-8-carboxamide]
- activity at 10 µM [1]: 3.7%
- AD38 Viability Normalized Result (cmpd/DMSO %) at 10 μM (AD38 cells): 93%

SMILES: CN1CCC(COc2ccc(-c3ncc(CNC(=O)c4ccc5c(c4)NC(=O)c4ccccc4S5(=O)=O)s3)cc2)CC1.Cl [compound 11138, N-((2-(4-((1-methylpiperidin-4-yl)methoxy)phenyl)thiazol-5-yl)methyl)-11-oxo-10, 11-dihydrodibenzo [b, f] [1, 4] thiazepine-8-carboxamide 5,5-dioxide hydrochloride]
- activity at 10 µM [1]: 1%
- AD38 Viability Normalized Result (cmpd/DMSO %) at 10 μM (AD38 cells): 96%

SMILES: O=C(NCc1cnc(-c2ccc(O)cc2)s1)c1ccc2c(c1)NC(=O)c1ccccc1C2 [compound 1734]
- activity at 10 µM [1]: 10.6%
- AD38 Viability Normalized Result (cmpd/DMSO %) at 10 μM (AD38 cells): 96%

SMILES: O=C(NCc1cnc(-c2nccs2)s1)c1ccc2c(c1)NC(=O)c1ccccc1O2 [compound 1893]
- activity at 10 µM [1]: 2%
- AD38 Viability Normalized Result (cmpd/DMSO %) at 10 μM (AD38 cells): 91%

SMILES: Cc1nc(C)c(CNC(=O)c2ccc3c(c2)NC(=O)c2ccccc2O3)s1 [compound 1769]
- activity at 10 µM [1]: 43.3%
- AD38 Viability Normalized Result (cmpd/DMSO %) at 10 μM (AD38 cells): 101%

SMILES: CN1CCC[C@@H]1COc1ccc(-c2ncc(CNC(=O)c3ccc4c(c3)NC(=O)c3ccccc3S4(=O)=O)s2)cc1 [compound 11131, (R)—N-((2-(4-((1-methylpyrrolidin-2-yl)methoxy)phenyl)thiazol-5-yl)methyl)-11-oxo-10,11-dihydrodibenzo [b, f] [1, 4] thiazepine-8-carboxamide 5,5-dioxide]
- activity at 10 µM [1]: 2%
- AD38 Viability Normalized Result (cmpd/DMSO %) at 10 μM (AD38 cells): 88%

SMILES: CN(C)c1ncc(-c2ncc(CNC(=O)c3ccc4c(c3)NC(=O)c3ccccc3S4(=O)=O)s2)cn1 [compound 1675]
- activity at 10 µM [1]: 2.3%
- AD38 Viability Normalized Result (cmpd/DMSO %) at 10 μM (AD38 cells): 115%

SMILES: O=C(NCc1cnc(-c2ccc(O)c(Cl)c2)s1)c1ccc2c(c1)NC(=O)c1ccccc1O2 [compound 1702]
- activity at 10 µM [1]: 5.3%
- AD38 Viability Normalized Result (cmpd/DMSO %) at 10 μM (AD38 cells): 102%

SMILES: COc1ccc(Cc2ncc(CNC(=O)c3ccc4c(c3)NC(=O)c3ccccc3O4)s2)cc1 [1835-A, N-((2-(4-methoxybenzyl)thiazol-5-yl)methyl)-11-oxo-10, 11-dihydrodibenzo [b, f] [1, 4] oxazepine-8-carboxamide]
- activity at 10 µM [1]: 0.3%
- AD38 Viability Normalized Result (cmpd/DMSO %) at 10 μM (AD38 cells): 89%

SMILES: CC1(C)CCN(c2ncc(CNC(=O)c3ccc4c(c3)NC(=O)c3ccccc3S4(=O)=O)s2)C1 [compound 1981]
- activity at 10 µM [1]: 0.2%
- AD38 Viability Normalized Result (cmpd/DMSO %) at 10 μM (AD38 cells): 105%

SMILES: Cc1c(C(=O)NCc2cnc(C(F)(F)F)s2)ccc2c1NC(=O)c1ccccc1S2(=O)=O [compound 1767]
- activity at 10 µM [1]: 0.5%
- AD38 Viability Normalized Result (cmpd/DMSO %) at 10 μM (AD38 cells): 94%

SMILES: NC(=O)c1ccc(-c2ncc(CNC(=O)c3ccc4c(c3)NC(=O)c3ccccc3S4(=O)=O)s2)c(F)c1 [compound 1970, N-((2-(4-carbamoyl-2-fluorophenyl)thiazol-5-yl)methyl)-11-oxo-10, 11-dihydrodibenzo [b, f] [1, 4] thiazepine-8-carboxamide 5,5-dioxide]
- activity at 10 µM [1]: 1.5%
- AD38 Viability Normalized Result (cmpd/DMSO %) at 10 μM (AD38 cells): 121%

SMILES: N#Cc1ccc(-c2ncc(CNC(=O)c3ccc4c(c3)NC(=O)c3ccccc3S4(=O)=O)s2)cc1F [compound 1815]
- activity at 10 µM [1]: 0.2%
- AD38 Viability Normalized Result (cmpd/DMSO %) at 10 μM (AD38 cells): 88%

SMILES: O=C(NCc1cnc(-c2cc[nH]n2)s1)c1ccc2c(c1)NC(=O)c1ccccc1S2(=O)=O [compound 1959]
- activity at 10 µM [1]: 5%
- AD38 Viability Normalized Result (cmpd/DMSO %) at 10 μM (AD38 cells): 92%

SMILES: O=C(NCc1cnc(-c2ccc(O)cc2)s1)c1ccc2c(c1)NC(=O)c1ccccc1S2 [compound 1605]
- activity at 10 µM [1]: 0.7%
- AD38 Viability Normalized Result (cmpd/DMSO %) at 10 μM (AD38 cells): 96%

SMILES: O=C(NCc1cnc(-c2ccc(O)c(Cl)c2)s1)c1ccc2c(c1)NC(=O)c1ccccc1S2(=O)=O [compound 1667]
- activity at 10 µM [1]: 0.5%
- AD38 Viability Normalized Result (cmpd/DMSO %) at 10 μM (AD38 cells): 93%

SMILES: O=C(NCc1cnc(-n2cc(F)cn2)s1)c1ccc2c(c1)NC(=O)c1ccccc1S2(=O)=O [compound 11038]
- activity at 10 µM [1]: 2%
- AD38 Viability Normalized Result (cmpd/DMSO %) at 10 μM (AD38 cells): 99%

SMILES: O=C(NCc1cnc(-c2ccc(N3CCCC3=O)cc2)s1)c1ccc2c(c1)NC(=O)c1ccccc1O2 [compound 1864]
- activity at 10 µM [1]: 3%
- AD38 Viability Normalized Result (cmpd/DMSO %) at 10 μM (AD38 cells): 93%

SMILES: Cc1c(C(=O)NCc2cnc(-n3cc(C(F)(F)F)cn3)s2)ccc2c1NC(=O)c1ccccc1S2(=O)=O [compound 11149]
- activity at 10 µM [1]: 0.2%
- AD38 Viability Normalized Result (cmpd/DMSO %) at 10 μM (AD38 cells): 100%

SMILES: O=C(NCc1cnc(-c2ccc(O)cc2)s1)c1ccc2c(c1)NC(=O)c1cc(F)ccc1S2 [compound 1746]
- activity at 10 µM [1]: 5.6%
- AD38 Viability Normalized Result (cmpd/DMSO %) at 10 μM (AD38 cells): 92%

SMILES: CN1CC[C@H](Oc2ccc(-c3ncc(CNC(=O)c4ccc5c(c4)NC(=O)c4ccccc4S5(=O)=O)s3)cc2)C1 [compound 11134, (S)—N-((2-(4-((1-methylpyrrolidin-3-yl)oxy)phenyl)thiazol-5-yl)methyl)-11-oxo-10, 11-dihydrodibenzo [b, f] [1, 4] thiazepine-8-carboxamide 5,5-dioxide]
- activity at 10 µM [1]: 1.4%
- AD38 Viability Normalized Result (cmpd/DMSO %) at 10 μM (AD38 cells): 90%

SMILES: CN(C)c1ccc(-c2ncc(CNC(=O)c3ccc4c(c3)NC(=O)c3ccccc3S4(=O)=O)s2)cn1 [compound 1674]
- activity at 10 µM [1]: 0.3%
- AD38 Viability Normalized Result (cmpd/DMSO %) at 10 μM (AD38 cells): 121%

SMILES: O=C(NCc1cnc(C(F)(F)F)s1)c1ccc2c(c1)NC(=O)c1ccccc1S2(=O)=O [compound 1553]
- activity at 10 µM [1]: 0.5%
- AD38 Viability Normalized Result (cmpd/DMSO %) at 10 μM (AD38 cells): 107%

SMILES: O=C(NCc1cnc(N2CCC(O)CC2)s1)c1ccc2c(c1)NC(=O)c1ccccc1O2 [compound 1865]
- activity at 10 µM [1]: 1%
- AD38 Viability Normalized Result (cmpd/DMSO %) at 10 μM (AD38 cells): 94%

SMILES: O=C(NCc1cnc(-c2ccc(OCCCN3CCC3)cc2)s1)c1ccc2c(c1)NC(=O)c1ccccc1S2(=O)=O [compound 11142]
- AD38 Viral Load (%) (VL with cmpd/VL in DMSO control) at 10 μM [1]: 0.8%
- AD38 Viability Normalized Result (cmpd/DMSO %) at 10 μM (AD38 cells): 87%

SMILES: N#Cc1ccc(-c2ncc(CNC(=O)c3ccc4c(c3)NC(=O)c3ccccc3N4CCO)s2)c(F)c1 [compound 11079]
- activity at 10 µM [1]: 3.3%
- AD38 Viability Normalized Result (cmpd/DMSO %) at 10 μM (AD38 cells): 102%

SMILES: CN(C)CCOc1ccc(-c2ncc(CNC(=O)c3ccc4c(c3)NC(=O)c3ccccc3S4)s2)cc1 [compound 1608]
- activity at 10 µM [1]: 12.4%
- AD38 Viability Normalized Result (cmpd/DMSO %) at 10 μM (AD38 cells): 98%

SMILES: O=C1CCc2cc(-c3ncc(CNC(=O)c4ccc5c(c4)NC(=O)c4ccccc4S5(=O)=O)s3)ccc2N1 [compound 1951]
- activity at 10 µM [1]: 1.8%
- AD38 Viability Normalized Result (cmpd/DMSO %) at 10 μM (AD38 cells): 101%

SMILES: O=C(NCc1cnc(C(=O)c2ccccc2)s1)c1ccc2c(c1)NC(=O)c1ccccc1S2(=O)=O [compound 1929]
- activity at 10 µM [1]: 1.2%
- AD38 Viability Normalized Result (cmpd/DMSO %) at 10 μM (AD38 cells): 93%

SMILES: CC(C)(C)OC(=O)N1CC(COc2ccc(-c3ncc(CNC(=O)c4ccc5c(c4)NC(=O)c4ccccc4S5(=O)=O)s3)cc2)C1 [1995-A, tert-butyl 3-((4-(5-((5,5-dioxido-11-oxo-10, 11-dihydrodibenzo [b, f] [1, 4]thiazepine-8-carboxamido)methyl)thiazol-2-yl)phenoxy)methyl) azetidine-1-carboxylate]
- AD38 Viral Load (%) (VL with cmpd/VL in DMSO control) at 10 μM [1]: 2.4%
- AD38 Viability Normalized Result (cmpd/DMSO %) at 10 μM (AD38 cells): 107%

SMILES: O=C(NCc1cnc(-c2ccc(O)cc2)s1)c1cc2c(cc1F)Sc1ccccc1C(=O)N2 [compound 1749]
- activity at 10 µM [1]: 54.3%
- AD38 Viability Normalized Result (cmpd/DMSO %) at 10 μM (AD38 cells): 109%

SMILES: CS(=O)(=O)c1ccc(-c2ncc(CNC(=O)c3ccc4c(c3)NC(=O)c3ccccc3O4)s2)cc1 [compound 1861]
- activity at 10 µM [1]: 5.9%
- AD38 Viability Normalized Result (cmpd/DMSO %) at 10 μM (AD38 cells): 94%

SMILES: O=C(NCc1cnc(-c2ccc(OCCCN3CCC[C@H]3C(=O)O)cc2)s1)c1ccc2c(c1)NC(=O)c1ccccc1S2(=O)=O [compound 11106, (3-(4-(5-((5,5-dioxido-11-oxo-10, 11-dihydrodibenzo [b, f] [1, 4]thiazepine-8-carboxamido)methyl)thiazol-2-yl)phenoxy)propyl)-L-proline]
- activity at 10 µM [1]: 3.3%
- AD38 Viability Normalized Result (cmpd/DMSO %) at 10 μM (AD38 cells): 97%

SMILES: N#Cc1ccc(-c2ncc(CNC(=O)c3ccc4c(c3)NC(=O)c3ccccc3O4)s2)c(F)c1 [compound 1826]
- activity at 10 µM [1]: 11.8%
- AD38 Viability Normalized Result (cmpd/DMSO %) at 10 μM (AD38 cells): 91%

SMILES: COc1c(C)cc(-c2ncc(CNC(=O)c3ccc4c(c3)NC(=O)c3ccccc3S4(=O)=O)s2)cc1C [1806-A, N-((2-(4-methoxy-3,5-dimethylphenyl)thiazol-5-yl)methyl)-11-oxo-10, 11-dihydrodibenzo [b, f] [1, 4] thiazepine-8-carboxamide 5,5-dioxide]
- activity at 10 µM [1]: 0.3%
- AD38 Viability Normalized Result (cmpd/DMSO %) at 10 μM (AD38 cells): 66%

SMILES: CN(C)CCCSc1ccc(-c2ncc(CNC(=O)c3ccc4c(c3)NC(=O)c3ccccc3S4(=O)=O)s2)cc1 [compound 11006, N-((2-(4-((3-(dimethylamino)propyl)thio)phenyl)thiazol-5-yl)methyl)-11-oxo-10, 11-dihydrodibenzo [b, f] [1, 4] thiazepine-8-carboxamide 5,5-dioxide]
- activity at 10 µM [1]: 1.3%
- AD38 Viability Normalized Result (cmpd/DMSO %) at 10 μM (AD38 cells): 97%
